Our source for the IC50 values is US20180148418A1, “AMIDO-SUBSTITUTED CYCLOHEXANE DERIVATIVES” (Bayer Pharma Aktiengesellschaft, priority 2015, published 2018).

Assay [1] has as its system wildtype Wnt signaling cascade. Description: HEK293 TOP assay (Super TopFlash luciferase reporter, Wnt-3a stimulated). The format is cell-based. The settings on record: Homo sapiens, HEK293, 16 h, HEK293 TOP reporter cells, Wnt3a at EC50, 16 hours. In outline:
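Compound series (50 μM down to 15 nM, 3.16-fold) diluted from DMSO 50-fold into CAFTY buffer, pH 7.4, 2 mM Ca^2+, 0.01% BSA, applied to Wnt-3a-stimulated HEK293 TopFlash and FOP reporter lines in parallel. Cells seeded 10000/well 24 h before; luciferase signal measured.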
On the technique in general: Reporter assays use an easily measured gene product as a stand-in for the process of interest.

Assay [2] concerns HEK293 cells cotransfected with the FOP control vector. Description: HEK293 FOP assay (control reporter with non-functional TCF elements). Particulars: Homo sapiens, 16 hours. The format is cell-based. Put shortly: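 Compound series from 50 μM down to 15 nM, prediluted in DMSO then 50-fold into CAFTY buffer (pH 7.4, 2 mM Ca2+, 0.01% BSA), tested alongside TOP cells on a Geneticin-selected HEK293 FOP line whose TCF elements are replaced by a random sequence; recombinant human Wnt-3a applied at 2500-5 ng/ml.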

In another assay the target is T1, TNKS2 (Homo sapiens, UniProt Q9H2K2).
T1 construct: purchased BPS Bioscience, San Diego, USA 80572 (TNKS2 Histone Ribosylation Assay Kit)
T1 sequence (Q9H2K2 1-1166): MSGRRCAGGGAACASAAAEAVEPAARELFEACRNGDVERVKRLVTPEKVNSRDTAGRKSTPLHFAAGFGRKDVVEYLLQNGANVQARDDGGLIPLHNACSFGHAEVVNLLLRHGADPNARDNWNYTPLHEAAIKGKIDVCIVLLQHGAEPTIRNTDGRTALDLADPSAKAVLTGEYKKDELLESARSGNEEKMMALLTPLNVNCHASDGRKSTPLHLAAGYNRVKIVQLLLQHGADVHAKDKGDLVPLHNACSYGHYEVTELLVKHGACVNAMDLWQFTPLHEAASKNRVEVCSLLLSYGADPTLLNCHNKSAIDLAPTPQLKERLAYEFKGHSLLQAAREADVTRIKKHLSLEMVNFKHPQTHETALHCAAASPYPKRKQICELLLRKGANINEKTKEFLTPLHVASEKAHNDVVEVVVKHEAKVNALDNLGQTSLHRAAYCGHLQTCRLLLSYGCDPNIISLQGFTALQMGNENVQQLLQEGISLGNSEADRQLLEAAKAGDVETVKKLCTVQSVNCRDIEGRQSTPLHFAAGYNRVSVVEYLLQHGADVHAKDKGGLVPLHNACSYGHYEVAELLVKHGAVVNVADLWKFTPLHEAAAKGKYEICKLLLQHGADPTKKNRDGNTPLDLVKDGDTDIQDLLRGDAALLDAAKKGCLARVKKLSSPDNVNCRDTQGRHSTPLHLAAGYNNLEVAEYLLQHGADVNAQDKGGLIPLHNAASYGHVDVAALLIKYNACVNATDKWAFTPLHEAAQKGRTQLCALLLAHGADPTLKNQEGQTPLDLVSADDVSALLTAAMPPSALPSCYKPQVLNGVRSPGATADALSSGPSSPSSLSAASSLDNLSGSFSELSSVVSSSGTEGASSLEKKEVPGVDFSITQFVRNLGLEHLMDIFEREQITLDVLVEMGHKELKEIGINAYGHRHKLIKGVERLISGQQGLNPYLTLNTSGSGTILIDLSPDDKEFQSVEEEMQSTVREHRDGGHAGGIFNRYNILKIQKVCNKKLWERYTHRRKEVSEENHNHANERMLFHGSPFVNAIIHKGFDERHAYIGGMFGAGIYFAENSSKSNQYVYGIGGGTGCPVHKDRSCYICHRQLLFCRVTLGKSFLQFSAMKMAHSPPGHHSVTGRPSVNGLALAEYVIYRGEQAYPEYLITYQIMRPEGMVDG
Description: TNKS2 Assay B (auto-parsylation, [3H]-NAD+ SPA). Type of assay: biochemical. Particulars: 6 nM TNKS2, auto-parsylation, over night at room temperature.

On to `O=C(NC1CCC2(CC1)CCN(c1cc(F)c(F)cc1Cl)C2=O)c1cnn2cccnc12` (single isomer, unassigned; isomer 1) [Example 168, N-[2-(2-chloro-4,5-difluorophenyl)-1-oxo-2-azaspiro[4.5]dec-8-yl]pyrazolo[1,5-a]pyrimidine-3-carboxamide (isomer 1)], for which the figures for the IC50 (in assay [1]; in assay [2]; against TNKS2) were 0.23 nM, not below 50000 nM and 3.1 nM, respectively.

As to `CNC(=O)c1nc[nH]c1C(=O)N[C@H]1CC[C@H](C(=O)Nc2cccnc2Cl)CC1` [Example 10, N^5-{trans-4-[(2-chloropyridin-3-yl)carbamoyl]cyclohexyl}-N^4-methyl-1H-imidazole-4,5-dicarboxamide], the half-inhibitory concentration (IC50) was 90 nM in assay [1], not below 50000 nM in assay [2] and 240 nM on TNKS2.

Take `CNC(=O)c1nc[nH]c1C(=O)N[C@H]1CC[C@H](C(=O)Nc2ccncc2Cl)CC1` [Example 11, N^5-{trans-4-[(3-chloropyridin-4-yl)carbamoyl]cyclohexyl}-N^4-methyl-1H-imidazole-4,5-dicarboxamide]: the IC50 is 140 nM in assay [1], not below 50000 nM in assay [2] and 210 nM on TNKS2.

For `CC1CCN(CCNC(=O)c2nc[nH]c2C(=O)N[C@H]2CC[C@H](C(=O)Nc3ccc(F)cc3Cl)CC2)CC1` [Example 12, N^5-{trans-4-[(2-chloro-4-fluorophenyl)carbamoyl]cyclohexyl}-N^4-[2-(4-methylpiperidin-1-yl)ethyl]-1H-imidazole-4,5-dicarboxamide], the IC50 in assay [1] was 72 nM; in assay [2], not below 50000 nM; on TNKS2 it was 7.2 nM.

Consider `O=C(NCCN1CCOCC1)c1nc[nH]c1C(=O)N[C@H]1CC[C@H](C(=O)Nc2ccc(F)cc2Cl)CC1` [Example 13, N^5-{trans-4-[(2-chloro-4-fluorophenyl)carbamoyl]cyclohexyl}-N^4-[2-(morpholin-4-yl)ethyl]-1H-imidazole-4,5-dicarboxamide], for which the IC50 in assay [1] was 95 nM; in assay [2] it was not below 50000 nM; on TNKS2 it was 19 nM.

Regarding `O=C(N[C@H]1CC[C@H](C(=O)Nc2ccc(F)cc2Cl)CC1)c1[nH]cnc1C(=O)N1CC2(COC2)C1` [Example 14, N-{trans-4-[(2-chloro-4-fluorophenyl)carbamoyl]cyclohexyl}-4-(2-oxa-6-azaspiro[3.3]hept-6-ylcarbonyl)-1H-imidazole-5-carboxamide], the IC50 in assay [1] was 120 nM; in assay [2], not below 50000 nM; against TNKS2 it was 37 nM.

`CCNC(=O)c1nc[nH]c1C(=O)N[C@H]1CC[C@H](C(=O)Nc2ccc(F)cc2Cl)CC1` [Example 15, N^5-{trans-4-[(2-chloro-4-fluorophenyl)carbamoyl]cyclohexyl}-N^4-ethyl-1H-imidazole-4,5-dicarboxamide]: the IC50 in assay [1] was 71 nM; in assay [2], not below 50000 nM; at TNKS2 it was 42 nM.

For `CN(C)C(=O)c1nc[nH]c1C(=O)N[C@H]1CC[C@H](C(=O)Nc2ccc(F)cc2Cl)CC1` [Example 16, N^5-{trans-4-[(2-chloro-4-fluorophenyl)carbamoyl]cyclohexyl}-N^4,N^4-dimethyl-1H-imidazole-4,5-dicarboxamide], the 50% inhibitory concentration (IC50) was 1400 nM in assay [1], not below 50000 nM in assay [2] and 1200 nM at TNKS2.

On to `O=C(NC1CC1)c1nc[nH]c1C(=O)N[C@H]1CC[C@H](C(=O)Nc2ccc(F)cc2Cl)CC1` [Example 17, N^5-{trans-4-[(2-chloro-4-fluorophenyl)carbamoyl]cyclohexyl}-N^4-cyclopropyl-1H-imidazole-4,5-dicarboxamide], for which the IC50 in assay [1] is 49 nM; in assay [2], not below 50000 nM; against TNKS2 it was 90 nM.

`O=C(NCCO)c1nc[nH]c1C(=O)N[C@H]1CC[C@H](C(=O)Nc2ccc(F)cc2Cl)CC1` [Example 18, N^5-{trans-4-[(2-chloro-4-fluorophenyl)carbamoyl]cyclohexyl}-N^4-(2-hydroxyethyl)-1H-imidazole-4,5-dicarboxamide]: the IC50 is 150 nM in assay [1], not below 50000 nM in assay [2] and 120 nM against TNKS2.

As to `COCCNC(=O)c1nc[nH]c1C(=O)N[C@H]1CC[C@H](C(=O)Nc2ccc(F)cc2Cl)CC1` [Example 19, N^5-{trans-4-[(2-chloro-4-fluorophenyl)carbamoyl]cyclohexyl}-N^4-(2-methoxyethyl)-1H-imidazole-4,5-dicarboxamide], the IC50 in assay [1] is 89 nM; in assay [2] it was not below 50000 nM; against TNKS2, 160 nM.

As for `CC(C)NC(=O)c1nc[nH]c1C(=O)N[C@H]1CC[C@H](C(=O)Nc2ccc(F)cc2Cl)CC1` [Example 20, N^5-{trans-4-[(2-chloro-4-fluorophenyl)carbamoyl]cyclohexyl}-N^4-isopropyl-1H-imidazole-4,5-dicarboxamide], the half-inhibitory concentration (IC50) in assay [1] is 220 nM; in assay [2], not below 50000 nM; against TNKS2, 130 nM.

For the compound `O=C(NCC(F)(F)F)c1nc[nH]c1C(=O)N[C@H]1CC[C@H](C(=O)Nc2ccc(F)cc2Cl)CC1` [Example 21, N^5-{trans-4-[(2-chloro-4-fluorophenyl)carbamoyl]cyclohexyl}-N^4-(2,2,2-trifluoroethyl)-1H-imidazole-4,5-dicarboxamide], the IC50 is 79 nM in assay [1], not below 50000 nM in assay [2] and 83 nM against TNKS2.

Take `O=C(N[C@H]1CC[C@@]2(CCN(c3ccc(F)cc3Cl)C2=O)CC1)c1[nH]cnc1C(=O)N1CCN(CC(F)(F)F)CC1` [Example 167, N-[(trans)-2-(2-chloro-4-fluorophenyl)-1-oxo-2-azaspiro[4.5]dec-8-yl]-4-{[4-(2,2,2-trifluoroethyl)piperazin-1-yl]carbonyl}-1H-imidazole-5-carboxamide]: the IC50 in assay [1] is 130 nM; in assay [2], not below 50000 nM; against TNKS2 it was 270 nM.

Regarding `Cc1cc(C)n2ncc(C(=O)N[C@H]3CC[C@H](C(=O)Nc4cnccc4Cl)CC3)c2n1` [Example 169, N-{trans-4-[(4-chloropyridin-3-yl)carbamoyl]cyclohexyl}-5,7-dimethylpyrazolo[1,5-a]pyrimidine-3-carboxamide], the IC50 in assay [1] is 33 nM; in assay [2] it was not below 50000 nM; against TNKS2, 14 nM.

Regarding `CNC(=O)c1nc[nH]c1C(=O)N[C@H]1CC[C@H](C(=O)Nc2cc(C(C)(C)O)ccc2Cl)CC1` [Example 170, N^5-(trans-4-{[2-chloro-5-(2-hydroxypropan-2-yl)phenyl]carbamoyl}cyclohexyl)-N^4-methyl-1H-imidazole-4,5-dicarboxamide], the IC50 in assay [1] is 2000 nM; in assay [2], not below 50000 nM; against TNKS2, 1500 nM.

As to `CNC(=O)c1nc[nH]c1C(=O)N[C@H]1CC[C@H](C(=O)N(C)c2ccccc2)CC1` [Example 171, N^4-methyl-N^5-{trans-4-[methyl(phenyl)carbamoyl]cyclohexyl}-1H-imidazole-4,5-dicarboxamide], the IC50 is 450 nM in assay [1], not below 50000 nM in assay [2] and 150 nM against TNKS2.

`CNC(=O)c1nc[nH]c1C(=O)N[C@H]1CC[C@H](C(=O)N(C)c2ccc(F)cc2)CC1` [Example 172, N^5-{trans-4-[(4-fluorophenyl)(methyl)carbamoyl]cyclohexyl}-N^4-methyl-1H-imidazole-4,5-dicarboxamide]: the figures for the 50% inhibitory concentration (IC50) (in assay [1]; in assay [2]; on TNKS2) were 410 nM, not below 50000 nM and 510 nM, respectively.

The IC50 is the midpoint of a concentration-inhibition curve. A high value points to lower potency.
